From paper PMC11172314, “Towards Enhanced Tunability of Aqueous Biphasic Systems: Furthering the Grasp of Fluorinated Ionic Liquids in the Purification of Proteins” (International Journal of Molecular Sciences, 2024)

Target: T1, lysozyme (Lys) (Gallus gallus, UniProt P00698)
T1 construct: Lyophilized lysozyme from chicken egg white, ≥90% purity; purchased Millipore (Darmstadt, Germany); host or cells: chicken egg white (natural source)
Assay: Far-UV CD secondary structure content of lysozyme (K2D deconvolution)
Parameters: species or system chicken; Lys α-helix content / Lys β-sheet content / Lys random coil content / α-helix content / β-sheet content / Random coil content: unit not given here
Conditions: 1.0 mg/ml Lys, 25 °C
Protocol: Circular dichroism (CD) spectroscopy is broadly applied to assess the secondary structure of proteins because different structural elements have characteristic CD spectra. […] For [C4C1Im][CF3SO3] (mere fluoro-containing IL), the structural content was estimated for the concentration range (0.1–200 mM). […] FIL and [ N1112(OH) ][H2PO4] […] No substantial protein structural modification upon the ABS phase-forming component addition was verified.
Circular dichroism (CD) spectra were collected in a 10 mm quartz cuvette and a Chirascan spectropolarimeter (Applied Photophysics, Leatherhead, UK) at room temperature. All CD spectra were recorded in far-UV 190 to 260 nm at scan rates of 50 nm/min, 4 accumulations, and a response time of 3 s. Each CD experiment involved the acquisition and combination of two distinct duplicates. […] Spectral deconvolution was carried out with Dichroweb using the K2D algorithm.

T1 sequence (P00698 19-147): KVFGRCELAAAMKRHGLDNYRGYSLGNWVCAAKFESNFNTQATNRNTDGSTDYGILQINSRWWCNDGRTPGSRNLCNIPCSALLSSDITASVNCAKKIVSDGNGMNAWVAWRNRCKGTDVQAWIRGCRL

Lys random coil content (0.1 mM component): 0.56
Lys α-helix content (0.1 mM component): 0.28
Lys β-sheet content (0.1 mM component): 0.15
Lys random coil content (1 mM component): 0.57
Lys α-helix content (1 mM component): 0.28
Lys β-sheet content (1 mM component): 0.15
Lys random coil content (5 mM component): 0.57
Lys α-helix content (5 mM component): 0.28
Lys β-sheet content (5 mM component): 0.15
Lys random coil content (25 mM component): 0.57
Lys α-helix content (25 mM component): 0.28
Lys β-sheet content (25 mM component): 0.15
Lys random coil content (55 mM component): 0.57
Lys α-helix content (55 mM component): 0.28
Lys β-sheet content (55 mM component): 0.15
Lys random coil content (90 mM component): 0.56
Lys α-helix content (90 mM component): 0.28
Lys β-sheet content (90 mM component): 0.15
Lys random coil content (120 mM component): 0.56
Lys α-helix content (120 mM component): 0.28
Lys β-sheet content (120 mM component): 0.15
Lys random coil content (200 mM component): 0.55
Lys α-helix content (200 mM component): 0.29
Lys β-sheet content (200 mM component): 0.16
Compound: CCCCn1cc[n+](C)c1.O=S(=O)([O-])C(F)(F)F [[C4C1Im][CF3SO3]]
